These results are taken from ChEMBL document CHEMBL5257125, “Discovery of pyrido[4,3-d]pyrimidinone derivatives as novel Wee1 inhibitors” (Bioorg Med Chem, 2023).

The subject of data set [1] is T47D. Put plainly: Antiproliferative activity against human T47D cells incubated for 72 hrs by Celltiter-glo assay. In kind it is functional, cell-based. (In general: In ATP-based viability assays light output follows the ATP content of the culture.)
Data set [2] concerns the target Wee1-like protein kinase (Homo sapiens, UniProt P30291). Description: Inhibition of recombinant human Wee1 (214 to end residues) incubated for 1 hr in presence of tracer 178 by fluorescence based assay.
Data set [3] deals with MV4-11. Description: Antiproliferative activity against human MV4-11 cells incubated for 72 hrs by Celltiter-glo assay. In kind it is functional, cell-based. The settings on record: MV4-11, 72 h.
Data set [4] in a line: Metabolic stability in mouse liver microsomes assessed as parent compound remaining preincubated with NADPH for 5 mins followed by compound addition and measured upto 90 mins by LC-MS/MS analysis. In kind it is ADME, Microsome. The settings on record: read-out: Stability. For orientation: Liver microsomes are a subcellular fraction often used to study metabolism.

Sequence of Wee1-like protein kinase (P30291 whole entry): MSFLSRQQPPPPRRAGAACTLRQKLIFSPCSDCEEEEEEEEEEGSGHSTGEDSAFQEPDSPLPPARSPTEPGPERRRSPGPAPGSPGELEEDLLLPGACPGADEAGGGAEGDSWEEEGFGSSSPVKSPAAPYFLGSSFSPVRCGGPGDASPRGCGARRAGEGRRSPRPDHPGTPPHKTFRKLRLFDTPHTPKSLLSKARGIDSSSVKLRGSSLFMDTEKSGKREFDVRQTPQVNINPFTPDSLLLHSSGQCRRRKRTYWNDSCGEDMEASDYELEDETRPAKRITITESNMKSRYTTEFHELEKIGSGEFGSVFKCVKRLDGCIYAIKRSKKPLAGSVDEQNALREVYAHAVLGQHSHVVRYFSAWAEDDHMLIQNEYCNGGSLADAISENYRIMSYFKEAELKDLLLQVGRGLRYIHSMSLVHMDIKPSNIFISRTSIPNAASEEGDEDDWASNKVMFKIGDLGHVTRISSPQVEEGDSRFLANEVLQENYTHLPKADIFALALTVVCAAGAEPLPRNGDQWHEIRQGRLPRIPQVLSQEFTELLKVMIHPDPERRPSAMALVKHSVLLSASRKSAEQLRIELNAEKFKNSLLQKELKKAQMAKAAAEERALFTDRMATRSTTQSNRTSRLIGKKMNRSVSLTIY

For orientation: IC50 means the concentration at which inhibition is half-maximal. In the case of `NC1CCN(c2ccc(Nc3cc4ncn(-c5c(Cl)cccc5Cl)c(=O)c4cn3)cc2)CC1`, the IC50 in data set [1] turned out to be 18800 nM; in data set [2] it was 65 nM; in data set [3] it was 2690 nM.
`CC(C)N1CCN(c2ccc(Nc3cc4ncn(-c5c(Cl)cccc5Cl)c(=O)c4cn3)cc2)CC1`: the IC50 in data set [2] was 38 nM.
As for `N[C@H]1CCCN(c2ccc(Nc3cc4ncn(-c5c(Cl)cccc5Cl)c(=O)c4cn3)cc2)C1`, the IC50 came out at 4680 nM in data set [1], 41 nM in data set [2] and 1460 nM in data set [3].
Turning to `COc1cc(Nc2cc3ncn(-c4c(Cl)cccc4Cl)c(=O)c3cn2)ccc1N1C[C@@H](C)N[C@@H](C)C1`, the IC50 in data set [2] amounted to 52 nM.
On the same count and under the same terms, then `CN1CCN(c2ccc(Nc3cc4ncn(-c5c(F)cccc5Cl)c(=O)c4cn3)cc2)CC1`, with 268 nM; and `NCC1CCN(c2ccc(Nc3cc4ncn(-c5c(Cl)cccc5Cl)c(=O)c4cn3)cc2)CC1`, with 55 nM.
On to `C[C@@H]1CN(c2ccc(Nc3cc4ncn(-c5c(Cl)cccc5Cl)c(=O)c4cn3)nc2)C[C@H](C)N1`, for which the IC50 worked out at 2670 nM in data set [1], 23 nM in data set [2] and 1160 nM in data set [3].
Consider `CCN1CCN(c2ccc(Nc3cc4ncn(-c5c(Cl)cccc5Cl)c(=O)c4cn3)cc2)CC1`, for which, in data set [2], the IC50 was found to be 85 nM.
`O=c1c2cnc(Nc3ccc(N4CCNCC4)cc3)cc2ncn1-c1c(Cl)cccc1Cl`: the values for the IC50 in data set [1], in data set [2] and in data set [3] were 4230 nM, 48 nM and 863 nM, respectively. Besides, the remaining at 1.5 h in data set [4] was > 50%.
In the case of `CN1CCN(c2ccc(Nc3cc4ncn(-c5c(Cl)cccc5Cl)c(=O)c4cn3)cc2)CC1`, the IC50 in data set [1] is 14400 nM; in data set [2] it was 47 nM; in data set [3], 1330 nM.
With `CN1CCN(c2ccc(Nc3cc4ncn(-c5c(Cl)cccc5Cl)c(=O)c4cn3)nc2)CC1`, the values for the IC50 in data set [1], in data set [2] and in data set [3] were 6390 nM, 18 nM and 1070 nM, respectively.
As to `CN1CCN(Cc2ccc(Nc3cc4ncn(-c5c(Cl)cccc5Cl)c(=O)c4cn3)cc2)CC1`, the IC50 in data set [2] was determined as 124 nM.
On the same count and under the same terms, then `CN1CCN(c2ccc(Nc3cc4ncn(-c5ccccc5F)c(=O)c4cn3)cc2)CC1`, with 1480 nM; and `CN(CCCN)c1ccc(Nc2cc3ncn(-c4c(Cl)cccc4Cl)c(=O)c3cn2)cc1`, with 90 nM; and `C[C@@H]1CN(c2ccc(Nc3cc4ncn(-c5c(Cl)cccc5Cl)c(=O)c4cn3)cc2CNC2CC2)C[C@H](C)N1`, with 107 nM.
Turning to `CN1CCC(Oc2ccc(Nc3cc4ncn(-c5c(Cl)cccc5Cl)c(=O)c4cn3)cc2)CC1`, the IC50 in data set [2] was determined as 93 nM.
As for `CN1CCC(Nc2ccc(Nc3cc4ncn(-c5c(Cl)cccc5Cl)c(=O)c4cn3)cc2)CC1`, the IC50 in data set [1] is 19200 nM; in data set [2], 35 nM; in data set [3], 1760 nM.
Consider `O=c1c2cnc(Nc3ccc(N[C@@H]4CN5CCC4CC5)cc3)cc2ncn1-c1c(Cl)cccc1Cl`, for which the IC50 in data set [2] was determined as 201 nM.
For `CN(C)CCN(C)c1ccc(Nc2cc3ncn(-c4c(Cl)cccc4Cl)c(=O)c3cn2)cc1`, the results for the IC50 in data set [1], in data set [2] and in data set [3] were 9600 nM, 70 nM and 660 nM, respectively. The remaining at 1.5 h in data set [4] was found to be 60%.
In the case of `CN(C)C1CCN(c2ccc(Nc3cc4ncn(-c5c(Cl)cccc5Cl)c(=O)c4cn3)cc2)CC1`, in data set [2], the IC50 is 73 nM.
Regarding `O=c1c2cnc(Nc3ccc(N4CCN(CCO)CC4)cc3)cc2ncn1-c1c(Cl)cccc1Cl`, the IC50 in data set [1] amounted to 13700 nM; in data set [2] it was 43 nM; in data set [3], 2050 nM.
`C[C@@H]1CN(c2ccc(Nc3cc4ncn(-c5c(Cl)cccc5Cl)c(=O)c4cn3)cc2C#N)C[C@H](C)N1`: the IC50 in data set [2] stood at 163 nM.
On to `C[C@@H]1CN(c2ccc(Nc3cc4ncn(-c5c(Cl)cccc5Cl)c(=O)c4cn3)cc2)C[C@H](C)N1`, for which the concentration for half-maximal inhibition (IC50) in data set [1] came to 4130 nM; in data set [2], 19 nM; in data set [3], 2680 nM.
As to `O=c1c2cnc(Nc3ccc(N4CCC(CO)CC4)cc3)cc2ncn1-c1c(Cl)cccc1Cl`, in data set [2], the IC50 was found to be 515 nM.
Still for that read-out and setting: the same measure for `N[C@@H]1CCCN(c2ccc(Nc3cc4ncn(-c5c(Cl)cccc5Cl)c(=O)c4cn3)cc2)C1`: 36 nM; for `O=c1c2cnc(Nc3ccc(N4CCC(O)CC4)cc3)cc2ncn1-c1c(Cl)cccc1Cl`: 96 nM; for `O=c1c2cnc(Nc3ccc(N4CCN(C5CC5)CC4)cc3)cc2ncn1-c1c(Cl)cccc1Cl`: 97 nM.
Same read-out and setting: then `Cc1cccc(Cl)c1-n1cnc2cc(Nc3ccc(N4CCN(C)CC4)cc3)ncc2c1=O`, with 78 nM.
In the case of `O=c1c2cnc(Nc3ccc(NC4CCNCC4)cc3)cc2ncn1-c1c(Cl)cccc1Cl`, the IC50 in data set [1] is > 20000 nM; in data set [2] it was 77 nM; in data set [3] it was 2470 nM.
For `CC(=O)N1CCN(c2ccc(Nc3cc4ncn(-c5c(Cl)cccc5Cl)c(=O)c4cn3)cc2)CC1`, in data set [2], the IC50 was 294 nM.
For `C[C@@H]1CN(c2ccc(Nc3cc4ncn(-c5c(Cl)cccc5Cl)c(=O)c4cn3)cc2CO)C[C@H](C)N1`, the IC50 in data set [1] turned out to be 3230 nM; in data set [2] it was 23 nM; in data set [3], 791 nM. Also, the remaining at 1.5 h in data set [4] is > 50%.
Take `C=CCn1c(=O)c2cnc(Nc3ccc(N4CCN(C)CC4)cc3)nc2n1-c1cccc(C(C)(C)O)n1` [ADAVOSERTIB]: the IC50 is 12800 nM in data set [1] and 95 nM in data set [3].
Take `CN(C)CCCNc1ccc(Nc2cc3ncn(-c4c(Cl)cccc4Cl)c(=O)c3cn2)cc1`: the IC50 in data set [1] is 14000 nM; in data set [2], 79 nM; in data set [3], 874 nM. Further, in data set [4], the remaining at 1.5 h came to 22%.
`N[C@@H]1CCN(c2ccc(Nc3cc4ncn(-c5c(Cl)cccc5Cl)c(=O)c4cn3)cc2)C1`: in data set [2], the 50% inhibitory concentration (IC50) worked out at 58 nM.
On the same count and under the same terms, then `CN(C)CCCN(C)c1ccc(Nc2cc3ncn(-c4c(Cl)cccc4Cl)c(=O)c3cn2)cc1`, with 142 nM.
As to `CN(C)CCOc1ccc(Nc2cc3ncn(-c4c(Cl)cccc4Cl)c(=O)c3cn2)cc1`, the IC50 in data set [1] is 10400 nM; in data set [2], 52 nM; in data set [3] it was 1220 nM.
Consider `O=c1c2cnc(Nc3ccc(C4CCNCC4)cc3)cc2ncn1-c1c(Cl)cccc1Cl`, for which, in data set [2], the IC50 is 78 nM.
Regarding `N[C@H]1CCN(c2ccc(Nc3cc4ncn(-c5c(Cl)cccc5Cl)c(=O)c4cn3)cc2)C1`, the half-inhibitory concentration (IC50) was 5030 nM in data set [1], 40 nM in data set [2] and 1010 nM in data set [3].
Turning to `C[C@@H]1CN(c2ccc(Nc3cc4ncn(-c5c(Cl)cccc5Cl)c(=O)c4cn3)cc2C(F)(F)F)C[C@H](C)N1`, in data set [2], the IC50 is 192 nM.
